The target in one assay is Beta-1 adrenergic receptor (Homo sapiens, UniProt P08588). Nature of the assay: DRUGMATRIX: Adrenergic beta1 radioligand binding (ligand: [125I] Cyanopindolol). The format is cell membranes, CHO-K1, Membrane. To be noted: cho-k1; Not Active = under 50% inhibition at 10 µM.
Chain of 5-hydroxytryptamine receptor 1B (P28564 whole entry): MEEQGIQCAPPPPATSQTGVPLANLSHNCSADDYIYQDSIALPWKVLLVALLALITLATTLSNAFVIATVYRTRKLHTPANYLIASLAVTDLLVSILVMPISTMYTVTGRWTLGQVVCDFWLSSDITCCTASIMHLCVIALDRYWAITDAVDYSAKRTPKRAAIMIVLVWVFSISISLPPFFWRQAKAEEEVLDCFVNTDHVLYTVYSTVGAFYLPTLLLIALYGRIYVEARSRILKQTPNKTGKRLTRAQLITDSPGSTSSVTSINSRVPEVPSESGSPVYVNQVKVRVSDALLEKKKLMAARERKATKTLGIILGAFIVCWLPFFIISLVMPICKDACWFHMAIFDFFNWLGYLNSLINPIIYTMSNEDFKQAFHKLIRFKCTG
Chain of Beta-1 adrenergic receptor (P08588 whole entry): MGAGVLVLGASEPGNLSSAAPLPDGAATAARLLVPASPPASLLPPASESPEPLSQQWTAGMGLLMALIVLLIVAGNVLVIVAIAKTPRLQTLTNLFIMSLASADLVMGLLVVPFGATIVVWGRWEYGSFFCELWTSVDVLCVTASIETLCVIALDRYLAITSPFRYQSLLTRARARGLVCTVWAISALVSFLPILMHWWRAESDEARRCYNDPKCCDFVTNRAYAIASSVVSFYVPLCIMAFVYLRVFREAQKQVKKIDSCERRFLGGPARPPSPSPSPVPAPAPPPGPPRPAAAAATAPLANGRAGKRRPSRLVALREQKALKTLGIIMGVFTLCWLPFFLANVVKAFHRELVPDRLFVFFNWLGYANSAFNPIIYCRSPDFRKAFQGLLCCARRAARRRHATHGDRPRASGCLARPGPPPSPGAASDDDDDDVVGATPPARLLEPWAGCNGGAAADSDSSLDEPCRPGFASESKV
Chain of Melanocortin receptor 4 (P32245 whole entry): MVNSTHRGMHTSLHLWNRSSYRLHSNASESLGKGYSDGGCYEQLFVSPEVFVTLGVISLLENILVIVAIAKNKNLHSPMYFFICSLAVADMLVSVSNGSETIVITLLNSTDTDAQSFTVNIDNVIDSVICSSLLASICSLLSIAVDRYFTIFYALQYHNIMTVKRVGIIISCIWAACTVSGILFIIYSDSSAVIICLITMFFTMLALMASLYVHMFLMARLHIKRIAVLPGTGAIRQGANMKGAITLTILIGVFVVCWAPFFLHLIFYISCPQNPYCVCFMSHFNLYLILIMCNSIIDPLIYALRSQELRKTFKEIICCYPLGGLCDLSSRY
Chain of Mu-type opioid receptor (P35372 whole entry): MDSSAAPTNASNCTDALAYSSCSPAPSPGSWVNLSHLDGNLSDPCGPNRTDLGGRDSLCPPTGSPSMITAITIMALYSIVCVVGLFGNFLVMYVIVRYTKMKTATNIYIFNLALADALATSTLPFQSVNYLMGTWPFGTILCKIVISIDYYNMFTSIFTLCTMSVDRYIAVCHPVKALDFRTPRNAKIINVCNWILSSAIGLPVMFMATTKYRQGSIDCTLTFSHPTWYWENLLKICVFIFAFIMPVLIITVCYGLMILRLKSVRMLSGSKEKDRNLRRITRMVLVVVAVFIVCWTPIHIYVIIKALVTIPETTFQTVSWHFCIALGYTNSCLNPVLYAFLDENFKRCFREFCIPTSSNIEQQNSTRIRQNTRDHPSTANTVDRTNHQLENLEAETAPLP
Take `CC(C)(S)[C@@H](N)C(=O)O` [PENICILLAMINE]: the IC50 result was “Not Active”.

In the case of `O=C(O)c1cn(C2CC2)c2cc(N3CCNCC3)c(F)cc2c1=O` [CIPROFLOXACIN], the IC50 entry is reported as “Not Active”.

Test system in the next assay: not listed separately
Put plainly: DRUGMATRIX: beta-Lactamase enzyme inhibition (substrate: Nitrocefin). To be noted: Not Active = under 50% inhibition at 10 µM. Also on record: species or system Bacillus cereus.
Regarding `CC(C)(S)[C@@H](N)C(=O)O` [PENICILLAMINE], the IC50 result is “Not Active” and the Ki entry is “Not Active”.

Regarding `O=C(O)c1cn(C2CC2)c2cc(N3CCNCC3)c(F)cc2c1=O` [CIPROFLOXACIN], the IC50 entry is “Not Active” and the Ki entry is “Not Active”.

Another assay addresses T1, 5-hydroxytryptamine receptor 2C (Homo sapiens, UniProt P28335).
T1 sequence (P28335 whole entry): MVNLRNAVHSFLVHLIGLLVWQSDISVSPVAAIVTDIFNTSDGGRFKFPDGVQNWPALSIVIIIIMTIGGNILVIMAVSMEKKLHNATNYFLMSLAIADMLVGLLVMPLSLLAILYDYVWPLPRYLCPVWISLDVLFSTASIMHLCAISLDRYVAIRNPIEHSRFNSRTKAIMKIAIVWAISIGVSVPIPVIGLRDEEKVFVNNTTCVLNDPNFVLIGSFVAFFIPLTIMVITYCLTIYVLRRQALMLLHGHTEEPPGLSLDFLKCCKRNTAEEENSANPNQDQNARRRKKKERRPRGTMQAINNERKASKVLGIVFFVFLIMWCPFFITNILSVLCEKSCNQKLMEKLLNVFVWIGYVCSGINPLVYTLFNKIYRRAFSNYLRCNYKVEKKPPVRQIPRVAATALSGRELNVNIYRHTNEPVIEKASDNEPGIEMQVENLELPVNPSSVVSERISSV
Nature of the assay: DRUGMATRIX: Serotonin (5-Hydroxytryptamine) 5-HT2C radioligand binding (ligand: [3H] Mesulergine). The settings on record: cho-k1; Not Active = under 50% inhibition at 10 µM. The assay is classed as cell membranes, CHO-K1, Membrane.
Regarding `CC(C)(S)[C@@H](N)C(=O)O` [PENICILLAMINE], the IC50 entry is listed as “Not Active”.

As for `O=C(O)c1cn(C2CC2)c2cc(N3CCNCC3)c(F)cc2c1=O` [CIPROFLOXACIN], the IC50 entry is given as “Not Active”.

Test system in a further assay: not listed separately
Put plainly: DRUGMATRIX: Sigma2 radioligand binding (ligand: [3H] Ifenprodil). The assay is classed as cell membranes, Rattus norvegicus, Wistar, Brain, Membrane. The settings on record: Not Active = under 50% inhibition at 10 µM.
In the case of `CC(C)(S)[C@@H](N)C(=O)O` [PENICILLAMINE], the IC50 entry was “Not Active” and the Ki result is “Not Active”.

As to `O=C(O)c1cn(C2CC2)c2cc(N3CCNCC3)c(F)cc2c1=O` [CIPROFLOXACIN], the IC50 result is on record as “Not Active” and the Ki entry is “Not Active”.

The next assay has as its target T2, D(4) dopamine receptor (Homo sapiens, UniProt P21917).
T2 sequence (P21917 whole entry): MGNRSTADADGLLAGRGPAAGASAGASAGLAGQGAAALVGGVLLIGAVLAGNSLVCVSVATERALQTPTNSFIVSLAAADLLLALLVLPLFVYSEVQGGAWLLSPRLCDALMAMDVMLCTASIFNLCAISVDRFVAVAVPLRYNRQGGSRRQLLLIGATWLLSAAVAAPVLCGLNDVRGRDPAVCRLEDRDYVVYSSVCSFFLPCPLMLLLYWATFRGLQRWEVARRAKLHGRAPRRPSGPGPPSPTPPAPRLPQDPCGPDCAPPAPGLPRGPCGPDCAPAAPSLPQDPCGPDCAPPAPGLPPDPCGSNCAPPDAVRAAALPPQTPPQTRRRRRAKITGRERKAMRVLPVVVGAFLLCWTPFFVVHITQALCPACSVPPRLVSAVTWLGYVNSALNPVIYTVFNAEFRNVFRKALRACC
Nature of the assay: DRUGMATRIX: Dopamine D4.2 radioligand binding (ligand: [3H] Spiperone). The assay is classed as cell membranes, CHO-K1, Membrane. The settings on record: cho-k1; Not Active = under 50% inhibition at 10 µM.
For the compound `CC(C)(S)[C@@H](N)C(=O)O` [PENICILLAMINE], the IC50 result is listed as “Not Active”.

On to `O=C(O)c1cn(C2CC2)c2cc(N3CCNCC3)c(F)cc2c1=O` [CIPROFLOXACIN], for which the IC50 entry is given as “Not Active”.

Test system in another assay: not listed separately
Nature of the assay: DRUGMATRIX: Leukotriene, BLT (LTB4) radioligand binding (ligand: [3H]LTB4). The assay is classed as cell membranes, Membrane. The settings on record: u-937; Not Active = under 50% inhibition at 10 µM.
Consider `CC(C)(S)[C@@H](N)C(=O)O` [PENICILLAMINE], for which the IC50 entry was “Not Active” and the Ki result is “Not Active”.

As to `O=C(O)c1cn(C2CC2)c2cc(N3CCNCC3)c(F)cc2c1=O` [CIPROFLOXACIN], the IC50 result is listed as “Not Active” and the Ki entry is “Not Active”.

The next assay deals with T3, Cysteinyl leukotriene receptor 1 (Homo sapiens, UniProt Q9Y271).
T3 sequence (Q9Y271 whole entry): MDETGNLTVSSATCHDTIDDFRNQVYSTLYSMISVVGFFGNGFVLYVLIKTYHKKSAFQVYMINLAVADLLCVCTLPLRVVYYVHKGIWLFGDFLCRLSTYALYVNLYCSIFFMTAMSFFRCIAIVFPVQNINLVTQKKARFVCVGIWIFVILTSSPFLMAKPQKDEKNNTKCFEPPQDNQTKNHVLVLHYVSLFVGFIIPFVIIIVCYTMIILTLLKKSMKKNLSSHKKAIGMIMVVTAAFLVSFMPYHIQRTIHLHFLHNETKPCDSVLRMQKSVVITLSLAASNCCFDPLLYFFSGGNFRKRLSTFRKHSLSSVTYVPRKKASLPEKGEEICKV
Test: not given
The format is cell membranes, CHO-K1, Membrane. The settings on record: cho-k1.
On to `CC(C)(S)[C@@H](N)C(=O)O` [PENICILLAMINE], for which the IC50 result is “Not Active”.

In the case of `O=C(O)c1cn(C2CC2)c2cc(N3CCNCC3)c(F)cc2c1=O` [CIPROFLOXACIN], the IC50 result is “Not Active”.

The next assay concerns the target Melanocortin receptor 4 (Homo sapiens, UniProt P32245). Further: in other assays of this panel Not Active means under 50% inhibition at 10 µM.
Test: not given
The format is cell membranes, Membrane. To be noted: hek293.
For `CC(C)(S)[C@@H](N)C(=O)O` [PENICILLAMINE], the IC50 entry is listed as “Not Active”.

Take `O=C(O)c1cn(C2CC2)c2cc(N3CCNCC3)c(F)cc2c1=O` [CIPROFLOXACIN]: the IC50 entry is “Not Active”.

Another assay deals with Melanocortin receptor 5 (Homo sapiens, UniProt P33032).
Chain of Melanocortin receptor 5 (P33032 whole entry): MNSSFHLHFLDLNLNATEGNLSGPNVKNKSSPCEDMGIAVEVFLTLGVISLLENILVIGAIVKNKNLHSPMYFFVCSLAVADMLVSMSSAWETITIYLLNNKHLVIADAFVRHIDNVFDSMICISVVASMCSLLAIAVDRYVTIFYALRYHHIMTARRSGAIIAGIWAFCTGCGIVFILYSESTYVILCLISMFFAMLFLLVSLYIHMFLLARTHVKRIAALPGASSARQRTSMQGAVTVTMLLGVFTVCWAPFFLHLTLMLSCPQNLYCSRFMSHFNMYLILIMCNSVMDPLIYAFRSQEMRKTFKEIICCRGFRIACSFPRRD
Test: not given
To be noted: hek293. The assay is classed as cell membranes, HEK293, Membrane.
With `CC(C)(S)[C@@H](N)C(=O)O` [PENICILLAMINE], the IC50 entry is given as “Not Active”.

In the case of `O=C(O)c1cn(C2CC2)c2cc(N3CCNCC3)c(F)cc2c1=O` [CIPROFLOXACIN], the IC50 entry is reported as “Not Active”.

The next assay concerns the target Mu-type opioid receptor (Homo sapiens, UniProt P35372). Put plainly: DRUGMATRIX: Opiate mu (OP3, MOP) radioligand binding (ligand: [3H] Diprenorphine). The assay is classed as cell membranes, CHO-K1, Membrane. To be noted: cho-k1; Not Active = under 50% inhibition at 10 µM.
Consider `CC(C)(S)[C@@H](N)C(=O)O` [PENICILLAMINE], for which the IC50 result is on record as “Not Active”.

`O=C(O)c1cn(C2CC2)c2cc(N3CCNCC3)c(F)cc2c1=O` [CIPROFLOXACIN]: the IC50 entry is given as “Not Active”.

Another assay addresses T4, Caspase-1 (Homo sapiens, UniProt P29466).
T4 sequence (P29466 whole entry): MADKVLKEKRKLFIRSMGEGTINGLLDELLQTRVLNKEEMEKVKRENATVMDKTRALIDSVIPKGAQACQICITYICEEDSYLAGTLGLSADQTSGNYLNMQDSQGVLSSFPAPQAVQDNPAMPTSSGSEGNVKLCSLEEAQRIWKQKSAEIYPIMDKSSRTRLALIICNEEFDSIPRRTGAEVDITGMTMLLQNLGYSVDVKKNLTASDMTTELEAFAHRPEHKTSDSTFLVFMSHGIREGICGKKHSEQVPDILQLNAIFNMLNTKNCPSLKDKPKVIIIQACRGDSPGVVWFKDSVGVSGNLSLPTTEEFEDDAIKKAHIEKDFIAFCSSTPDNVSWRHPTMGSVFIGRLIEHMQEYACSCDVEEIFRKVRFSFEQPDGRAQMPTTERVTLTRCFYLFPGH
Test: not given
Details: not given
Further details: species or system Escherichia coli.
As to `CC(C)(S)[C@@H](N)C(=O)O` [PENICILLAMINE], the IC50 entry was “Not Active”.

For the compound `O=C(O)c1cn(C2CC2)c2cc(N3CCNCC3)c(F)cc2c1=O` [CIPROFLOXACIN], the IC50 result is “Not Active”.

The target of the next assay is T5, Cathepsin G (Homo sapiens, UniProt P08311).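 Further: inhibition of Cathepsin G enzyme activity, tested on an AMC-conjugated peptide substrate; in other assays of this panel Not Active means under 50% inhibition at 10 µM.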
T5 sequence (P08311 whole entry): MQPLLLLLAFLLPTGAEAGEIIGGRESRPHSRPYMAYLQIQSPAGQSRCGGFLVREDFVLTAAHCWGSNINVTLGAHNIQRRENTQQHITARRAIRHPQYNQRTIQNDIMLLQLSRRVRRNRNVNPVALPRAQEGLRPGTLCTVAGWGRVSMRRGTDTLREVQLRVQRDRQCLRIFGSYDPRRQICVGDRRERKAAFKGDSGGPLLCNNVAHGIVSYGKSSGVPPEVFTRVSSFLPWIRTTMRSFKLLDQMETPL
Test: not given
The settings on record: neutrophil. The assay is classed as tissue-based.
With `CC(C)(S)[C@@H](N)C(=O)O` [PENICILLAMINE], the IC50 entry is listed as “Not Active”.

Turning to `O=C(O)c1cn(C2CC2)c2cc(N3CCNCC3)c(F)cc2c1=O` [CIPROFLOXACIN], the IC50 entry was “Not Active”.

The target of the next assay is Epidermal growth factor receptor (Homo sapiens, UniProt P00533). Nature of the assay: DRUGMATRIX: Protein Tyrosine Kinase, EGF Receptor enzyme inhibition (substrate: Poly(Glu:Tyr)). The assay is classed as cell-based, Insect cells. To be noted: insect cells; Not Active = under 50% inhibition at 10 µM.
Chain of Epidermal growth factor receptor (P00533 whole entry): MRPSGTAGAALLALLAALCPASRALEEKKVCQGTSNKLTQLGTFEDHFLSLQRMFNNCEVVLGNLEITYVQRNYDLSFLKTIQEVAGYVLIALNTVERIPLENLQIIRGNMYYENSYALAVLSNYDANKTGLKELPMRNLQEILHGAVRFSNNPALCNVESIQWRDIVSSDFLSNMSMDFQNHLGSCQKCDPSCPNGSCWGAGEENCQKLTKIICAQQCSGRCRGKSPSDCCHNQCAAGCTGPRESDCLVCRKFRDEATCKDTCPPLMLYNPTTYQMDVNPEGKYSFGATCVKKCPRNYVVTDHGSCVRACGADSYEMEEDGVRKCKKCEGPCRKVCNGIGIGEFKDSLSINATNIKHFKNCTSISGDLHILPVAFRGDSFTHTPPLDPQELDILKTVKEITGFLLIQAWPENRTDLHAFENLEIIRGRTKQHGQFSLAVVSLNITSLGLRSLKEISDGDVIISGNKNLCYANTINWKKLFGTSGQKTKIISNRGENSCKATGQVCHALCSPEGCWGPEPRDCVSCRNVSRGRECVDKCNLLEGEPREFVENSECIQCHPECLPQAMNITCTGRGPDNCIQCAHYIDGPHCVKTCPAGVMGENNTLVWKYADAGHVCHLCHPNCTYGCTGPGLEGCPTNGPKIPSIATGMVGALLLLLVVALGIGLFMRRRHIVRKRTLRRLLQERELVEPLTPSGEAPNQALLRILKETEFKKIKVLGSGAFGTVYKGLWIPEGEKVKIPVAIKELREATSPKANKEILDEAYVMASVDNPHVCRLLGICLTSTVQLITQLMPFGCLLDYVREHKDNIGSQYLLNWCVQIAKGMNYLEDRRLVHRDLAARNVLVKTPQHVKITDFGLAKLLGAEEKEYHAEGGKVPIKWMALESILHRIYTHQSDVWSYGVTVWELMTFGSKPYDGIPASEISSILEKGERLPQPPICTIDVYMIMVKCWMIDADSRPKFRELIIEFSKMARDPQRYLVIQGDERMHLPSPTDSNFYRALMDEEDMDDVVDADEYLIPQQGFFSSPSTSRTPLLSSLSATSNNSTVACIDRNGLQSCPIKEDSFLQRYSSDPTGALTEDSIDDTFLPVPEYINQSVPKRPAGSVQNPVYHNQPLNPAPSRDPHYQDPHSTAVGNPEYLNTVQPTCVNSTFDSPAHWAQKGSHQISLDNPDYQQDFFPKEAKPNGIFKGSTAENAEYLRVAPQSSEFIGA
On to `CC(C)(S)[C@@H](N)C(=O)O` [PENICILLAMINE], for which the IC50 entry is on record as “Not Active”.

With `O=C(O)c1cn(C2CC2)c2cc(N3CCNCC3)c(F)cc2c1=O` [CIPROFLOXACIN], the IC50 result is reported as “Not Active”.

The target in another assay is Tyrosine-protein kinase Fyn (Homo sapiens, UniProt P06241). Nature of the assay: biochemical. The assay is classed as cell-based, Insect cells. The settings on record: insect cells.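 Further: enzymatic inhibition of Fyn kinase activity measured with Poly(Glu:Tyr) as the phosphorylation substrate; in other assays of this panel Not Active means under 50% inhibition at 10 µM.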
Chain of Tyrosine-protein kinase Fyn (P06241 whole entry): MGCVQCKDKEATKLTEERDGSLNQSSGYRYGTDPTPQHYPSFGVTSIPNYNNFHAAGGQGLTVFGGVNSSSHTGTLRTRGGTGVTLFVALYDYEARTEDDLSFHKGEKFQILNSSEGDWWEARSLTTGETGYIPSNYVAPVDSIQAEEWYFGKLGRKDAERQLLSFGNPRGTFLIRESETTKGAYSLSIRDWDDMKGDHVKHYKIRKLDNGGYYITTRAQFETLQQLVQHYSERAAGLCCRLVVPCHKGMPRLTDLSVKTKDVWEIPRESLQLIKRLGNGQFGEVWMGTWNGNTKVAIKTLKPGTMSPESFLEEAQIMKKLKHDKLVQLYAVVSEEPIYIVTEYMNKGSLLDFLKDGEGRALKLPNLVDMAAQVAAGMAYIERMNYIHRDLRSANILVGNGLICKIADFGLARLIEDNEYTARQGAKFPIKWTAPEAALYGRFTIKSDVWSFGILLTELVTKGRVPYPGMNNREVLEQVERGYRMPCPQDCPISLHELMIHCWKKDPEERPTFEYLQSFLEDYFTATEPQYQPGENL
On to `CC(C)(S)[C@@H](N)C(=O)O` [PENICILLAMINE], for which the IC50 result is “Not Active”.

As to `O=C(O)c1cn(C2CC2)c2cc(N3CCNCC3)c(F)cc2c1=O` [CIPROFLOXACIN], the IC50 result is “Not Active”.

Test system in a further assay: not listed separately
Nature of the assay: DRUGMATRIX: Purinergic P2X radioligand binding (ligand: [3H] alpha, beta-Methylene-ATP). The format is cell membranes, Oryctolagus cuniculus, New Zealand albino, Urinary bladder, Membrane. To be noted: Not Active = under 50% inhibition at 10 µM.
For `CC(C)(S)[C@@H](N)C(=O)O` [PENICILLAMINE], the IC50 entry was “Not Active” and the Ki result is “Not Active”.

Take `O=C(O)c1cn(C2CC2)c2cc(N3CCNCC3)c(F)cc2c1=O` [CIPROFLOXACIN]: the IC50 result is “Not Active” and the Ki result is listed as “Not Active”.

A further assay has as its target 5-hydroxytryptamine receptor 1B (Rattus norvegicus, UniProt P28564). Further: in other assays of this panel Not Active means under 50% inhibition at 10 µM.
Test: not given
The assay is classed as cell membranes, Wistar, Cerebral cortex, Membrane.
Details: not given
For the compound `CC(C)(S)[C@@H](N)C(=O)O` [PENICILLAMINE], the IC50 entry is given as “Not Active”.

For the compound `O=C(O)c1cn(C2CC2)c2cc(N3CCNCC3)c(F)cc2c1=O` [CIPROFLOXACIN], the IC50 entry is “Not Active”.

(Values after ChEMBL document CHEMBL1909046, “DrugMatrix in vitro pharmacology data”.)
